In patent US11427549B2, “Pyrimidinyloxy benzo-fused compounds as herbicides” (FMC Corporation, priority 2017, dated 2022):

Experiments:
[1] = test system: wheat (Triticum aestivum); experiment: Test A postemergence, wheat; type: in vivo; settings: Triticum aestivum, post-emergence, 240 h, 0 to 100 scale (0 no effect, 100 complete control), read-out: Plant response rating, Wheat
[2] = test system: barnyardgrass (Echinochloa crus-galli); experiment: Test A preemergence, barnyardgrass; type: in vivo; settings: Echinochloa crus-galli, pre-emergence, 240 h, 0 to 100 scale (0 no effect, 100 complete control), read-out: Plant response rating, Barnyardgrass
[3] = test system: barnyardgrass (Echinochloa crus-galli); experiment: Test A postemergence, barnyardgrass; type: in vivo; settings: Echinochloa crus-galli, post-emergence, 240 h, 0 to 100 scale (0 no effect, 100 complete control), read-out: Plant response rating, Barnyardgrass
[4] = test system: ragweed (common ragweed, Ambrosia elatior); experiment: Test A postemergence, ragweed; type: in vivo; settings: Ambrosia artemisiifolia, post-emergence, 240 h, 0 to 100 scale (0 no effect, 100 complete control), read-out: Plant response rating, Ragweed
[5] = test system: pigweed (Amaranthus retroflexus); experiment: Test A preemergence, pigweed; type: in vivo; settings: Amaranthus retroflexus, pre-emergence, 240 h, 0 to 100 scale (0 no effect, 100 complete control), read-out: Plant response rating, Pigweed
rice (Oryza sativa) = experiment: Test B flooded paddy test, rice; settings: Oryza sativa, read-out: Plant response rating, Rice (0 to 100 scale, 0 is no effect, 100 is complete control)
[6] = test system: barnyardgrass (Echinochloa crus-galli); experiment: Test B flooded paddy test, barnyardgrass; settings: Echinochloa crus-galli, read-out: Plant response rating, Barnyardgrass (0 to 100 scale, 0 is no effect, 100 is complete control)
[7] = test system: pigweed (Amaranthus retroflexus); experiment: Test A postemergence, pigweed; type: in vivo; settings: Amaranthus retroflexus, post-emergence, 240 h, 0 to 100 scale (0 no effect, 100 complete control), read-out: Plant response rating, Pigweed
kochia (Kochia scoparia) [8] = experiment: Test A postemergence, kochia; type: in vivo; settings: Bassia scoparia, post-emergence, 240 h, 0 to 100 scale (0 no effect, 100 complete control), read-out: Plant response rating, Kochia
[9] = test system: ducksalad (Heteranthera limosa); experiment: Test B flooded paddy test, ducksalad; settings: Heteranthera limosa, read-out: Plant response rating, Ducksalad (0 to 100 scale, 0 is no effect, 100 is complete control)
kochia (Kochia scoparia) [10] = experiment: Test A preemergence, kochia; type: in vivo; settings: Bassia scoparia, pre-emergence, 240 h, 0 to 100 scale (0 no effect, 100 complete control), read-out: Plant response rating, Kochia
[11] = test system: galium (catchweed bedstraw, Galium aparine); experiment: Test A postemergence, galium; type: in vivo; settings: Galium, post-emergence, 240 h, 0 to 100 scale (0 no effect, 100 complete control), read-out: Plant response rating, Galium
[12] = test system: ryegrass, Italian (Italian ryegrass, Lolium multiflorum); experiment: Test A postemergence, ryegrass, Italian; type: in vivo; settings: Lolium multiflorum, post-emergence, 240 h, 0 to 100 scale (0 no effect, 100 complete control), read-out: Plant response rating, Ryegrass, Italian
[13] = test system: ragweed (common ragweed, Ambrosia elatior); experiment: Test A preemergence, ragweed; type: in vivo; settings: Ambrosia artemisiifolia, pre-emergence, 240 h, 0 to 100 scale (0 no effect, 100 complete control), read-out: Plant response rating, Ragweed
corn (Zea mays) = experiment: Test A postemergence, corn; type: in vivo; settings: Zea mays, post-emergence, 240 h, 0 to 100 scale (0 no effect, 100 complete control)
[14] = test system: blackgrass (Alopecurus myosuroides); experiment: Test A postemergence, blackgrass; type: in vivo; settings: Alopecurus myosuroides, post-emergence, 240 h, 0 to 100 scale (0 no effect, 100 complete control), read-out: Plant response rating, Blackgrass
[15] = test system: ryegrass, Italian (Italian ryegrass, Lolium multiflorum); experiment: Test A preemergence, ryegrass, Italian; type: in vivo; settings: Lolium multiflorum, pre-emergence, 240 h, 0 to 100 scale (0 no effect, 100 complete control), read-out: Plant response rating, Ryegrass, Italian
[16] = test system: foxtail, green (green foxtail, Setaria viridis); experiment: Test A preemergence, foxtail, green; type: in vivo; settings: Setaria, pre-emergence, 240 h, 0 to 100 scale (0 no effect, 100 complete control), read-out: Plant response rating, Foxtail, Green

CN1C(=O)c2cccc(Oc3ncc(Cl)cn3)c2C1CCCC(F)(F)F (stereo not drawn) [Compound 12, 4-[(5-Chloro-2-pyrimidinyl)oxy]-2,3-dihydro-2-methyl-3-(4,4,4-trifluorobutyl)-1H-isoindol-1-one]
plant injury at 31 g/ha ([1]; 31 g ai/ha): 0%
plant injury at 125 g/ha ([1]; 125 g ai/ha): 0%
pest or weed control at 31 g/ha ([2]; 31 g ai/ha): 0%
pest or weed control at 125 g/ha ([2]; 125 g ai/ha): 0%
pest or weed control at 31 g/ha ([3]; 31 g ai/ha): 0%
pest or weed control at 125 g/ha ([3]; 125 g ai/ha): 0%
pest or weed control at 31 g/ha ([4]; 31 g ai/ha): 0%
pest or weed control at 125 g/ha ([4]; 125 g ai/ha): 20%
pest or weed control at 31 g/ha ([5]; 31 g ai/ha): 0%
pest or weed control at 125 g/ha ([5]; 125 g ai/ha): 0%
plant injury at 250 g/ha (rice (Oryza sativa)): 0%
pest or weed control at 250 g/ha [6]: 0%
pest or weed control at 31 g/ha ([7]; 31 g ai/ha): 0%
pest or weed control at 125 g/ha ([7]; 125 g ai/ha): 30%
pest or weed control at 31 g/ha (kochia (Kochia scoparia) [8]; 31 g ai/ha): 0%
pest or weed control at 125 g/ha (kochia (Kochia scoparia) [8]; 125 g ai/ha): 10%
pest or weed control at 250 g/ha [9]: 0%
pest or weed control at 31 g/ha (kochia (Kochia scoparia) [10]; 31 g ai/ha): 0%
pest or weed control at 125 g/ha (kochia (Kochia scoparia) [10]; 125 g ai/ha): 0%
pest or weed control at 31 g/ha ([11]; 31 g ai/ha): 0%
pest or weed control at 125 g/ha ([11]; 125 g ai/ha): 10%
pest or weed control at 31 g/ha ([12]; 31 g ai/ha): 0%
pest or weed control at 125 g/ha ([12]; 125 g ai/ha): 0%
pest or weed control at 31 g/ha ([13]; 31 g ai/ha): 0%
pest or weed control at 125 g/ha ([13]; 125 g ai/ha): 0%
Corn plant response rating (crop injury, 0 = no effect, 100 = complete kill) at 31 g/ha (corn (Zea mays); 31 g ai/ha): 0%
Corn plant response rating (crop injury, 0 = no effect, 100 = complete kill) at 125 g/ha (corn (Zea mays); 125 g ai/ha): 10%
pest or weed control at 31 g/ha ([14]; 31 g ai/ha): 0%
pest or weed control at 125 g/ha ([14]; 125 g ai/ha): 0%
pest or weed control at 31 g/ha ([15]; 31 g ai/ha): 0%
pest or weed control at 125 g/ha ([15]; 125 g ai/ha): 0%
pest or weed control at 31 g/ha ([16]; 31 g ai/ha): 0%
pest or weed control at 125 g/ha ([16]; 125 g ai/ha): 0%
